Drawing on patent publication US20260317324A1, “BIFUNCTIONAL COMPOUNDS FOR DEGRADING BRAF VIA UBIQUITIN PROTEOSOME PATHWAY” (Nurix Therapeutics, Inc., priority 2023, published 2026), this text covers DC50 and Dmax for nine molecules.

Type in all cases: cell-based
The target of one assay is T1, BRAF G469A (Homo sapiens, UniProt P15056, G469A).
T1 construct: Horizon Discovery (HCT-116 BRAF−/− cells); host or cells: HCT-116 BRAF−/− cells, clone 34, lentiviral transduction
As to the kind of experiment: BRAF HiBiT degradation assay, C-terminal HiBiT-tagged BRAF G469A overexpressed in HCT-116 BRAF−/− cells (clone 34), Nano-Glo HiBiT Lytic assay. The essentials:
(§1)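 HCT-116 BRAF−/− clones stably overexpressing C-terminal HiBiT-tagged mutant BRAF were seeded 24 h before treatment with an 11-point half-log series from 1 μM to 0.01 nM (0.2% DMSO final). Remaining protein was read by HiBiT lytic luminescence, with DMSO and wildtype-cell controls. DC50 was taken as the fitted concentration at 50% remaining protein; observed Dmax is reported relative to DMSO.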
A general note: The HiBiT peptide binds its large partner to form an active luciferase.

For another assay, the target named is T2, BRAF V600E (Homo sapiens, UniProt P15056, V600E).
T2 construct: endogenous C-terminal HiBiT fusion tag on BRAF V600E allele; endogenous in cells; host or cells: A375 clone 1F10 (CRISPR-Cas9 knock-in of the HiBiT tag; parental A375 from ATCC)
As to the kind of experiment: BRAF HiBiT degradation assay, C-terminal HiBiT-tagged BRAF V600E A375 cells (clone 1F10), Nano-Glo HiBiT Lytic assay. The settings on record: for Dmax: A-375. The essentials:
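A375 cells (clone 1F10, endogenous C-terminal HiBiT on BRAF V600E) were seeded at 10,000 cells/well, grown 24 h, then dosed in duplicate with an 11-point series from 1 μM to 0.01 nM (0.2% DMSO). Nano-Glo HiBiT lytic luminescence was normalised to DMSO and wildtype-A375 background; DC50 was read at 50% protein remaining, alongside observed Dmax.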

For a further assay, the target named is T3, BRAF G466V (Homo sapiens, UniProt P15056, G466V).
T3 construct: Horizon Discovery (HCT-116 BRAF−/− cells); host or cells: HCT-116 BRAF−/− cells, clone 8, lentiviral transduction
Kind of assay: BRAF HiBiT degradation assay, C-terminal HiBiT-tagged BRAF G466V overexpressed in HCT-116 BRAF−/− cells (clone 8), Nano-Glo HiBiT Lytic assay. The essentials:
as §1

A further assay concerns the target T4, BRAF D594G (Homo sapiens, UniProt P15056, D594G).
T4 construct: Horizon Discovery (HCT-116 BRAF−/− cells); host or cells: HCT-116 BRAF−/− cells, clone 63, lentiviral transduction
Kind of assay: BRAF HiBiT degradation assay, C-terminal HiBiT-tagged BRAF D594G overexpressed in HCT-116 BRAF−/− cells (clone 63), Nano-Glo HiBiT Lytic assay. The essentials: as §1

Setting [1] is: Class 2, BRAF G469A, DC50 at 50%: fitted conc. at Y=50.
Setting [2] is: HCT-116, Class 2, BRAF G469A, percentage protein degraded at maximal compound effect relative to DMSO.
Where [3] appears, read: A375 (BRAF V600E), DC50 at 50%: fitted conc. at Y=50.
Where [4] appears, read: A375 (BRAF V600E), percentage protein degraded at maximal compound effect relative to DMSO.
The mark [5] stands for this setting: BRAF G466V, DC50 at 50%: fitted conc. at Y=50.
Where [6] appears, read: HCT-116, BRAF G466V, percentage protein degraded at maximal compound effect relative to DMSO.
Setting [7] is: BRAF D594G, DC50 at 50%: fitted conc. at Y=50.
Setting [8] is: HCT-116, BRAF D594G, percentage protein degraded at maximal compound effect relative to DMSO.
[9] abbreviates: BRAF G469A (Class 2), HCT-116 BRAF−/− cells, DC50 at 50% degradation.
[10] abbreviates: BRAF G469A (Class 2), HCT-116 BRAF−/− cells, observed Dmax relative to DMSO control.
Where [11] appears, read: A375 (BRAF V600E, Class 1), DC50 at 50% degradation.
The mark [12] stands for this setting: A375 (BRAF V600E, Class 1), observed Dmax, % protein degraded relative to DMSO control.
Where [13] appears, read: BRAF G466V (Class 3), HCT-116 BRAF−/− cells, DC50 at 50% degradation.
Where [14] appears, read: BRAF G466V (Class 3), HCT-116 BRAF−/− cells, observed Dmax relative to DMSO control.
[15] abbreviates: BRAF D594G (Class 3), HCT-116 BRAF−/− cells, DC50 at 50% degradation.
Where [16] appears, read: BRAF D594G (Class 3), HCT-116 BRAF−/− cells, observed Dmax relative to DMSO control.

T4 sequence (P15056 whole entry D594G): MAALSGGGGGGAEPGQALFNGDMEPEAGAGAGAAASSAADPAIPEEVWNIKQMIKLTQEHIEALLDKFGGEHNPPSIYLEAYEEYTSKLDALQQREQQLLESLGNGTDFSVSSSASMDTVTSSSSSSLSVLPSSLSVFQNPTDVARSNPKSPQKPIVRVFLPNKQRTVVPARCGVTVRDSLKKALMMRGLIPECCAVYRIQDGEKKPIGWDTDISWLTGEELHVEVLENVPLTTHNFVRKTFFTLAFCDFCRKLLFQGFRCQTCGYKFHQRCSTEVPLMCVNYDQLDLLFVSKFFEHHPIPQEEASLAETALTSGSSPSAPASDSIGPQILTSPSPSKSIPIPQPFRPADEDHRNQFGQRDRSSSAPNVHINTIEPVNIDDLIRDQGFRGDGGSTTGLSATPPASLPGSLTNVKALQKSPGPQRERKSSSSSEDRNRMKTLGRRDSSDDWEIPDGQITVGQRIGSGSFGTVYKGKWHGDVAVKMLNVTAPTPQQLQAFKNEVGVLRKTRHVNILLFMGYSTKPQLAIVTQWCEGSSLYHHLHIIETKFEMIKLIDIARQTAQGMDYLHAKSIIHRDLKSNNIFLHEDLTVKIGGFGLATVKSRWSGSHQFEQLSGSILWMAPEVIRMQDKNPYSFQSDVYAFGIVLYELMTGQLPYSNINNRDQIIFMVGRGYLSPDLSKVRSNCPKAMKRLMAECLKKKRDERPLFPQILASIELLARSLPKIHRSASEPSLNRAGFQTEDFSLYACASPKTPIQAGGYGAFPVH
T2 sequence (P15056 whole entry V600E, the tested form may be a part): as the sequence (P15056 whole entry D594G) above, with G594D, V600E counted along it
T3 sequence (P15056 whole entry G466V): as the sequence (P15056 whole entry D594G) above, with G466V, G594D counted along it
T1 sequence (P15056 whole entry G469A): as the sequence (P15056 whole entry D594G) above, with G469A, G594D counted along it

For `CCCS(=O)(=O)Nc1cccc(-c2nc(C(C)(C)C3CCN(C(=O)C4CN(C5CCN(c6ccc7c(c6)C(=O)N(C6CCC(=O)NC6=O)C7=O)CC5)C4)CC3)sc2-c2ccnc(N)n2)c1F` (racemic) [Compound 243, Rac-N-{3-[5-(2-aminopyrimidin-4-yl)-2-(2-{1-[1-(1-{2-[(3R)-2,6-dioxopiperidin-3-yl]-1,3-dioxo-2,3-dihydro-1H-isoindol-5-yl}piperidin-4-yl)azetidine-3-carbonyl]piperidin-4-yl}propan-2-yl)-1,3-thiazol-4-yl]-2-fluorophenyl}propane-1-sulfonamide], the DC50 (as a rule, the concentration at which degradation of the target reaches its halfway point) was above 500 nM on BRAF G469A (setting [1]), 50 to 500 nM on BRAF V600E (setting [3]), above 500 nM on BRAF G466V (setting [5]) and above 500 nM on BRAF D594G (setting [7]). The Dmax (in general, the greatest extent of degradation seen) is below 30% on BRAF G469A (setting [2]), 30 to 70% at BRAF V600E (setting [4]), below 30% on BRAF G466V (setting [6]) and 30 to 70% on BRAF D594G (setting [8]).
Regarding `O=C1CCN(c2ccc(N3CCC(CN4CCN(c5ccc(-n6cc(-c7cc(Cl)cc(NS(=O)(=O)N8CC[C@@H](F)C8)c7F)c(-c7ccncc7)n6)c(F)c5)CC4)CC3)nc2)C(=O)N1` [Compound 371, (3R)—N-[5-chloro-3-(1-{4-[4-({1-[5-(2,4-dioxo-1,3-diazinan-1-yl)pyridin-2-yl]piperidin-4-yl}methyl)piperazin-1-yl]-2-fluorophenyl}-3-(pyridin-4-yl)-1H-pyrazol-4-yl)-2-fluorophenyl]-3-fluoropyrrolidine-1-sulfonamide], the DC50 at BRAF G469A (setting [9]), at BRAF V600E (setting [11]), on BRAF G466V (setting [13]) and on BRAF D594G (setting [15]) was below 10 nM in each case. The Dmax on BRAF G469A (setting [10]) is 30 to 70%; at BRAF V600E (setting [12]), above 70%; at BRAF G466V (setting [14]), 30 to 70%; at BRAF D594G (setting [16]) it was 30 to 70%.
For the molecule `O=C1CCC(c2ccc(N3CCC(CN4CCN(c5ccc(-n6cc(-c7cc(Cl)cc(NS(=O)(=O)N8CC(F)C8)c7F)c(-c7ccncc7)n6)cc5)CC4)CC3)nc2)C(=O)N1` (racemic) [Compound 332, Rac-N-{5-chloro-3-[1-(4-{4-[(1-{5-[(3R)-2,6-dioxopiperidin-3-yl]pyridin-2-yl}piperidin-4-yl)methyl]piperazin-1-yl}phenyl)-3-(pyridin-4-yl)-1H-pyrazol-4-yl]-2-fluorophenyl}-3-fluoroazetidine-1-sulfonamide], the DC50 on BRAF G469A (setting [9]), at BRAF V600E (setting [11]), on BRAF G466V (setting [13]) and on BRAF D594G (setting [15]) was below 10 nM each time. Moreover, the Dmax at BRAF G469A (setting [10]) is above 70%; at BRAF V600E (setting [12]) it was above 70%; on BRAF G466V (setting [14]) it was above 70%; at BRAF D594G (setting [16]) it was 30 to 70%.
With `C[C@@H]1CN(c2ccc(-n3cc(-c4cc(Cl)cc(NS(=O)(=O)N5CCCC5)c4F)c(-c4ccncc4)n3)cc2)CCN1CC1CCN(c2ccc(C3CCC(=O)NC3=O)cn2)CC1` (mixture of isomers) [Compound 268, N-(5-chloro-3-(1-(4-((R)-4-((1-(5-((RS)-2,6-dioxopiperidin-3-yl)pyridin-2-yl)piperidin-4-yl)methyl)-3-methylpiperazin-1-yl)phenyl)-3-(pyridin-4-yl)-1H-pyrazol-4-yl)-2-fluorophenyl)pyrrolidine-1-sulfonamide], the DC50 on BRAF G469A (setting [9]), on BRAF V600E (setting [11]), at BRAF G466V (setting [13]) and at BRAF D594G (setting [15]) was below 10 nM each time. Further, the Dmax on BRAF G469A (setting [10]), at BRAF V600E (setting [12]), on BRAF G466V (setting [14]) and at BRAF D594G (setting [16]) was above 70% each time.
In the case of `O=C1CCN(c2ccc(N3CCC(CN4CCN(c5ccc(-n6cc(-c7cc(Cl)cc(NS(=O)(=O)N8CCCC8)c7F)c(-c7ccncc7)n6)cc5)CC4)CC3)nc2)C(=O)N1` [Compound 355, N-[5-chloro-3-(1-{4-[4-({1-[5-(2,4-dioxo-1,3-diazinan-1-yl)pyridin-2-yl]piperidin-4-yl}methyl)piperazin-1-yl]phenyl}-3-(pyridin-4-yl)-1H-pyrazol-4-yl)-2-fluorophenyl]pyrrolidine-1-sulfonamide], the DC50 on BRAF G469A (setting [9]) was 10 to 50 nM; at BRAF V600E (setting [11]), below 10 nM; at BRAF G466V (setting [13]), below 10 nM; on BRAF D594G (setting [15]), below 10 nM. Further, the Dmax is 30 to 70% at BRAF G469A (setting [10]), above 70% at BRAF V600E (setting [12]), above 70% on BRAF G466V (setting [14]) and 30 to 70% on BRAF D594G (setting [16]).
Consider `CCN(C)S(=O)(=O)Nc1cccc(-c2nc(C3CCN(C(=O)C4CCN(C(=O)C5CCN(c6ccc(C7CCC(=O)NC7=O)cn6)CC5)CC4)CC3)sc2-c2ccnc(NC(C)C)n2)c1F` (racemic) [Compound 183, Rac-(3S)-3-{6-[4-(4-{4-[4-(3-{[ethyl(methyl)sulfamoyl]amino}-2-fluorophenyl)-5-{2-[(propan-2-yl)amino]pyrimidin-4-yl}-1,3-thiazol-2-yl]piperidine-1-carbonyl}piperidine-1-carbonyl)piperidin-1-yl]pyridin-3-yl}piperidine-2,6-dione], for which the DC50 on BRAF G469A (setting [1]) is above 500 nM; on BRAF V600E (setting [3]) it was below 10 nM; on BRAF G466V (setting [5]), below 10 nM; at BRAF D594G (setting [7]) it was below 10 nM. Moreover, the Dmax on BRAF G469A (setting [2]) is 30 to 70%; at BRAF V600E (setting [4]) it was above 70%; at BRAF G466V (setting [6]), 30 to 70%; on BRAF D594G (setting [8]), 30 to 70%.
On to `CCCS(=O)(=O)Nc1cccc(-c2nc(C3CCC4(CC3)CCN(C(=O)C3CCN(c5ccc(C6CCC(=O)NC6=O)cn5)CC3)CC4)sc2-c2ccnc(N)n2)c1F` (racemic) [Compound 246, Rac-N-{3-[5-(2-aminopyrimidin-4-yl)-2-[3-(1-{5-[(3R)-2,6-dioxopiperidin-3-yl]pyridin-2-yl}piperidine-4-carbonyl)-3-azaspiro[5.5]undecan-9-yl]-1,3-thiazol-4-yl]-2-fluorophenyl}propane-1-sulfonamide], for which the DC50 at BRAF G469A (setting [9]) was above 500 nM; at BRAF V600E (setting [11]) it was 10 to 50 nM; at BRAF G466V (setting [13]), above 500 nM; on BRAF D594G (setting [15]), above 500 nM. In addition, the Dmax on BRAF G469A (setting [10]) was below 30%; at BRAF V600E (setting [12]), above 70%; on BRAF G466V (setting [14]) it was below 30%; at BRAF D594G (setting [16]), 30 to 70%.
With `CCCS(=O)(=O)Nc1cc(Cl)cc(-c2cn(-c3ccc(N4CCN(CC5CCN(c6ccc([C@H]7CCC(=O)NC7=O)cc6)CC5)[C@H](C)C4)cc3)nc2-c2ccncc2)c1F` [Compound 275, N-[5-chloro-3-(1-{4-[(3R)-4-[(1-{4-[(3R)-2,6-dioxopiperidin-3-yl]phenyl}piperidin-4-yl)methyl]-3-methylpiperazin-1-yl]phenyl}-3-(pyridin-4-yl)-1H-pyrazol-4-yl)-2-fluorophenyl]propane-1-sulfonamide], the DC50 on BRAF G469A (setting [9]) is 10 to 50 nM; on BRAF V600E (setting [11]) it was below 10 nM; at BRAF G466V (setting [13]), below 10 nM; on BRAF D594G (setting [15]) it was below 10 nM. Moreover, the Dmax was 30 to 70% on BRAF G469A (setting [10]), above 70% at BRAF V600E (setting [12]), above 70% on BRAF G466V (setting [14]) and 30 to 70% on BRAF D594G (setting [16]).
As for `CCCS(=O)(=O)Nc1cccc(-c2nc(C(C)(C)C)sc2-c2ccnc(Nc3cccc(OC4CCN(CC[C@@H]5CCN(c6ccc(C7CCC(=O)NC7=O)cn6)C5)CC4)c3)n2)c1F` (mixture of isomers) [Compound 70, N-(3-{2-tert-butyl-5-[2-({3-[(1-{2-[(3R)-1-{5-[(3RS)-2,6-dioxopiperidin-3-yl]pyridin-2-yl}pyrrolidin-3-yl]ethyl}piperidin-4-yl)oxy]phenyl}amino)pyrimidin-4-yl]-1,3-thiazol-4-yl}-2-fluorophenyl)propane-1-sulfonamide], the DC50 on BRAF G469A (setting [1]) is above 500 nM; at BRAF V600E (setting [3]), 50 to 500 nM; at BRAF G466V (setting [5]), above 500 nM; on BRAF D594G (setting [7]), above 500 nM. Further, the Dmax is below 30% at BRAF G469A (setting [2]), 30 to 70% on BRAF V600E (setting [4]), below 30% at BRAF G466V (setting [6]) and 30 to 70% at BRAF D594G (setting [8]).
